Test results: patent US4694069A, “Kibdelosporangium aridum SK&F-AAD-609” (SmithKline Beckman Corporation, priority 1985, dated 1987)

What was measured:
[1] = test system: mixed intestinal microflora (cecum fluid); assay: Swine in vitro model; conditions: one level, up to 166.67 ppm; 4-5 h
Method: A swine in vitro model was used to characterize AAD-609 antibiotics as potential feed additives in swine and poultry. Mixed intestinal microflora were obtained from ileally-cannulated pigs. Virginiamycin, carbadox, AAD-216 and its components, and AAD-609 Complex (containing less than 5% AAD-216 antibiotics) were tested at one level. […] Glucose (GLU) was spared from microbial degradation. Volatile fatty acids (TOTAL) were the major end-product of microbial metabolism while lactic acid production were reduced. […] Since AAD-609 and AAD-216 give similar in vitro results, it is expected that AAD-609 has similar growth-promoting activity in monogastric animals. Also, the in vitro activity of AAD-609 is similar to the activity previously observed with bacitracin in this model.
The swine in vitro model was carried out by incubating 1.5 ml of cecum fluid, from a swine fed normal rations, mixed with 1.5 ml of a nutrient broth (3 mg casein hydrolysate, 30 mg maltose, 1.25 mg urea, 0.5 mg lysine, and 30 mg cellobiose) and with up to 166.67 parts per million of a selected growth promotant at 39° C., with oscillation, for about 4-5 hours. Results, percentage of control, are reported in the following table in which all abbreviations are as above except that LLA means L-lactate and ETOH means ethanol.

[2] = test system: rumen fermentation (strained rumen fluid); assay: Rumen in vitro model; parameters: species or system steer; conditions: for AAN (alpha amino nitrogen) / AMO (ammonia nitrogen) / LYS (lysine): 6 h; for % PR (percent propionate) / ACE (acetate) / BUT (butyrate) / ETOH (ethanol) / IBU (isobutyrate) / IVA (isovalerate) / PRO (propionate) / TOTAL (total volatile fatty acids) / VAL: 24 h
Method: The AAD-609 antibiotics were characterized in a rumen in vitro model to assess their potential as feed additives for ruminants. […] Specifically, strained rumen fluid (10 ml) obtained from a fistulated steer receiving a roughage ration, was mixed with 10 ml of nutrient broth (20 mg casein hydrolysate, 100 mg maltose, 15 mg urea, 400 mg solka floc (cellulose), 100 mg cellobiose and 100 mg starch) and with a selected growth promotant and incubated at 39° C., with oscillation, for 24 hours. […] Measurement of AMO, LYS and AAN was done with a sample taken from the incubation flask after 6 hours.

## COC(=O)N/N=C/c1c[n+]([O-])c2ccccc2[n+]1[O-] [Carbadox, carbadox]
[1]
  % PR (percent propionate): 38 % of control
  ACE (acetate): 47 % of control
  BUT (butyrate): 46 % of control
  ETOH (ethanol): 62 % of control
  GLU (glucose): 138 % of control
  IBU (isobutyrate): 0 % of control
  IVA (isovalerate): 0 % of control
  LLA (L-lactate): 9 % of control
  LYS (lysine): 79 % of control
  PRO (propionate): 11 % of control
  TOTAL (total volatile fatty acids): 30 % of control
  VAL: 0 % of control

## CNC1C(=O)NC2C(=O)NC(C(=O)NC3C(=O)NC4C(=O)NC(C(=O)NC(C(=O)O)c5cc(O)cc(OC6OC(CO)C(O)C(O)C6O)c5-c5cc4ccc5O)C(O)c4cc(Cl)c(c(Cl)c4)Oc4cc3cc(c4OC3OC(C(=O)O)C(O)C(O)C3NC(=O)CCCCCCCCC(C)C)Oc3ccc(cc3Cl)C2O)c2cc(cc(O)c2Cl)Oc2cc1ccc2O (stereo not shown) [AAD-216 C]
[2]; 0.50 ppm
  AAN (alpha amino nitrogen): 96 % of control
  AMO (ammonia nitrogen): 99 % of control
  LYS (lysine): 78 % of control
  % PR (percent propionate): 105 % of control
  ACE (acetate): 94 % of control
  BUT (butyrate): 101 % of control
  ETOH (ethanol): 0 % of control
  IBU (isobutyrate): 123 % of control
  IVA (isovalerate): 123 % of control
  PRO (propionate): 105 % of control
  TOTAL (total volatile fatty acids): 100 % of control
  VAL: 102 % of control
[2]; 5.00 ppm
  AAN (alpha amino nitrogen): 136 % of control
  AMO (ammonia nitrogen): 98 % of control
  LYS (lysine): 102 % of control
  % PR (percent propionate): 148 % of control
  ACE (acetate): 96 % of control
  BUT (butyrate): 83 % of control
  ETOH (ethanol): 0 % of control
  IBU (isobutyrate): 86 % of control
  IVA (isovalerate): 56 % of control
  PRO (propionate): 148 % of control
  TOTAL (total volatile fatty acids): 100 % of control
  VAL: 51 % of control
[2]; 50.00 ppm
  AAN (alpha amino nitrogen): 166 % of control
  AMO (ammonia nitrogen): 106 % of control
  LYS (lysine): 144 % of control
  % PR (percent propionate): 149 % of control
  ACE (acetate): 98 % of control
  BUT (butyrate): 88 % of control
  ETOH (ethanol): 0 % of control
  IBU (isobutyrate): 111 % of control
  IVA (isovalerate): 87 % of control
  PRO (propionate): 154 % of control
  TOTAL (total volatile fatty acids): 104 % of control
  VAL: 30 % of control
[1]
  % PR (percent propionate): 127 % of control
  ACE (acetate): 175 % of control
  BUT (butyrate): 105 % of control
  ETOH (ethanol): 0 % of control
  GLU (glucose): 181 % of control
  IBU (isobutyrate): 0 % of control
  IVA (isovalerate): 0 % of control
  LLA (L-lactate): 2 % of control
  LYS (lysine): 29 % of control
  PRO (propionate): 281 % of control
  TOTAL (total volatile fatty acids): 221 % of control
  VAL: 0 % of control

## CNC1C(=O)NC2C(=O)NC(C(=O)NC3C(=O)NC4C(=O)NC(C(=O)NC(C(=O)O)c5cc(O)cc(OC6OC(CO)C(O)C(O)C6O)c5-c5cc4ccc5O)C(O)c4cc(Cl)c(c(Cl)c4)Oc4cc3cc(c4OC3OC(C(=O)O)C(O)C(O)C3NC(=O)CCCCCCCC(C)C)Oc3ccc(cc3Cl)C2O)c2cc(cc(O)c2Cl)Oc2cc1ccc2O (stereo not shown) [AAD-216 B]
[2]; 0.50 ppm
  AAN (alpha amino nitrogen): 121 % of control
  AMO (ammonia nitrogen): 96 % of control
  LYS (lysine): 96 % of control
  % PR (percent propionate): 104 % of control
  ACE (acetate): 107 % of control
  BUT (butyrate): 97 % of control
  ETOH (ethanol): 0 % of control
  IBU (isobutyrate): 108 % of control
  IVA (isovalerate): 94 % of control
  PRO (propionate): 108 % of control
  TOTAL (total volatile fatty acids): 103 % of control
  VAL: 101 % of control
[2]; 5.00 ppm
  AAN (alpha amino nitrogen): 140 % of control
  AMO (ammonia nitrogen): 93 % of control
  LYS (lysine): 120 % of control
  % PR (percent propionate): 141 % of control
  ACE (acetate): 106 % of control
  BUT (butyrate): 88 % of control
  ETOH (ethanol): 0 % of control
  IBU (isobutyrate): 95 % of control
  IVA (isovalerate): 67 % of control
  PRO (propionate): 153 % of control
  TOTAL (total volatile fatty acids): 108 % of control
  VAL: 86 % of control
[2]; 50.00 ppm
  AAN (alpha amino nitrogen): 178 % of control
  AMO (ammonia nitrogen): 107 % of control
  LYS (lysine): 132 % of control
  % PR (percent propionate): 144 % of control
  ACE (acetate): 103 % of control
  BUT (butyrate): 98 % of control
  ETOH (ethanol): 0 % of control
  IBU (isobutyrate): 123 % of control
  IVA (isovalerate): 111 % of control
  PRO (propionate): 159 % of control
  TOTAL (total volatile fatty acids): 110 % of control
  VAL: 28 % of control
[1]
  % PR (percent propionate): 119 % of control
  ACE (acetate): 217 % of control
  BUT (butyrate): 154 % of control
  ETOH (ethanol): 104 % of control
  GLU (glucose): 180 % of control
  IBU (isobutyrate): 0 % of control
  IVA (isovalerate): 0 % of control
  LLA (L-lactate): 2 % of control
  LYS (lysine): 25 % of control
  PRO (propionate): 305 % of control
  TOTAL (total volatile fatty acids): 257 % of control
  VAL: 0 % of control

## CC[C@@]1([C@@H]2O[C@@H]([C@H]3O[C@@](O)(CO)[C@H](C)C[C@@H]3C)C[C@@H]2C)CC[C@H]([C@]2(C)CC[C@]3(C[C@H](O)[C@@H](C)[C@@H]([C@@H](C)[C@@H](OC)[C@H](C)C(=O)O)O3)O2)O1 [Monensin, monensin]
[2]; 0.50 ppm
  AAN (alpha amino nitrogen): 117 % of control
  AMO (ammonia nitrogen): 103 % of control
  LYS (lysine): 78 % of control
  % PR (percent propionate): 131 % of control
  ACE (acetate): 100 % of control
  BUT (butyrate): 92 % of control
  ETOH (ethanol): 0 % of control
  IBU (isobutyrate): 112 % of control
  IVA (isovalerate): 150 % of control
  PRO (propionate): 141 % of control
  TOTAL (total volatile fatty acids): 108 % of control
  VAL: 100 % of control
[2]; 5.00 ppm
  AAN (alpha amino nitrogen): 185 % of control
  AMO (ammonia nitrogen): 101 % of control
  LYS (lysine): 144 % of control
  % PR (percent propionate): 189 % of control
  ACE (acetate): 101 % of control
  BUT (butyrate): 61 % of control
  ETOH (ethanol): 0 % of control
  IBU (isobutyrate): 84 % of control
  IVA (isovalerate): 103 % of control
  PRO (propionate): 208 % of control
  TOTAL (total volatile fatty acids): 110 % of control
[2]; 50.00 ppm
  AAN (alpha amino nitrogen): 248 % of control
  AMO (ammonia nitrogen): 101 % of control
  LYS (lysine): 186 % of control
  ACE (acetate): 96 % of control
  BUT (butyrate): 53 % of control
  ETOH (ethanol): 0 % of control
  IBU (isobutyrate): 123 % of control
  IVA (isovalerate): 132 % of control
  PRO (propionate): 258 % of control
  TOTAL (total volatile fatty acids): 117 % of control
  VAL: 81 % of control

## avoparcin
[2]; 0.50 ppm
  AAN (alpha amino nitrogen): 99 % of control
  AMO (ammonia nitrogen): 93 % of control
  LYS (lysine): 120 % of control
  % PR (percent propionate): 102 % of control
  ACE (acetate): 100 % of control
  BUT (butyrate): 103 % of control
  ETOH (ethanol): 0 % of control
  IBU (isobutyrate): 91 % of control
  IVA (isovalerate): 97 % of control
  PRO (propionate): 104 % of control
  TOTAL (total volatile fatty acids): 102 % of control
  VAL: 103 % of control
[2]; 5.00 ppm
  AAN (alpha amino nitrogen): 120 % of control
  AMO (ammonia nitrogen): 97 % of control
  LYS (lysine): 150 % of control
  % PR (percent propionate): 123 % of control
  ACE (acetate): 94 % of control
  BUT (butyrate): 82 % of control
  ETOH (ethanol): 0 % of control
  IBU (isobutyrate): 103 % of control
  IVA (isovalerate): 94 % of control
  PRO (propionate): 116 % of control
  TOTAL (total volatile fatty acids): 94 % of control
  VAL: 73 % of control
[2]; 50.00 ppm
  AAN (alpha amino nitrogen): 182 % of control
  AMO (ammonia nitrogen): 111 % of control
  LYS (lysine): 114 % of control
  % PR (percent propionate): 129 % of control
  ACE (acetate): 98 % of control
  BUT (butyrate): 90 % of control
  ETOH (ethanol): 0 % of control
  IBU (isobutyrate): 117 % of control
  IVA (isovalerate): 90 % of control
  PRO (propionate): 130 % of control
  TOTAL (total volatile fatty acids): 101 % of control
  VAL: 68 % of control
